Reference: PubChem BioAssay AID1259407 (Chemical Carcinogenesis Research Information System (CCRIS), 2018)
Calls of active or inactive are those of the source. The rule behind the calls is not given here.

System: CCRIS mutagenicity, Ames/micronucleus/aberration tests
Assay: CCRIS mutagenicity studies
[1] = Test System: AMES SALMONELLA TYPHIMURIUM, Strain/Indicator: TA98(NR), Metabolic Activation: NONE, Method: PREINCUBATION
[2] = Test System: AMES SALMONELLA TYPHIMURIUM, Strain/Indicator: TA98, Metabolic Activation: NONE, Method: PREINCUBATION
[3] = Test System: AMES SALMONELLA TYPHIMURIUM, Strain/Indicator: TA100, Metabolic Activation: NONE, Method: PREINCUBATION
[4] = Test System: AMES SALMONELLA TYPHIMURIUM, Strain/Indicator: TA100, Metabolic Activation: RAT, LIVER, S-9, AROCLOR 1254, Method: PREINCUBATION
[5] = Test System: AMES SALMONELLA TYPHIMURIUM, Strain/Indicator: TA100, Metabolic Activation: RAT, LIVER, S-9, AROCLOR 1254, Method: STANDARD PLATE
[6] = Test System: AMES SALMONELLA TYPHIMURIUM, Strain/Indicator: TA100, Metabolic Activation: S-9, Method: STANDARD PLATE
[7] = Test System: AMES SALMONELLA TYPHIMURIUM, Strain/Indicator: TA98, Metabolic Activation: NONE, Method: STANDARD PLATE
[8] = Test System: AMES SALMONELLA TYPHIMURIUM, Strain/Indicator: TA98, Metabolic Activation: RAT, LIVER, S-9, AROCLOR 1254, Method: STANDARD PLATE
[9] = Test System: AMES SALMONELLA TYPHIMURIUM, Strain/Indicator: TA100, Metabolic Activation: NONE, Method: STANDARD PLATE
[10] = Test System: AMES SALMONELLA TYPHIMURIUM, Strain/Indicator: TA1535, Metabolic Activation: NONE, Method: STANDARD PLATE
[11] = Test System: AMES SALMONELLA TYPHIMURIUM, Strain/Indicator: TA1537, Metabolic Activation: NONE, Method: STANDARD PLATE

O=[N+]([O-])c1ccc2ccc3cccc4c3c2c1C1OC41 (centres undefined) was tested, and the mutagenic call (Test System: AMES SALMONELLA TYPHIMURIUM, Strain/Indicator: TA98(1,8-DNP6), Metabolic Activation: RAT, LIVER, S-9, PHENOBARBITAL AND 5,6-BENZOFLAVONE, Method: PREINCUBATION) was “active; positive”, the mutagenic call [1] was “active; positive” and the mutagenic call [2] was “active; positive”. The mutagenic call (Test System: AMES SALMONELLA TYPHIMURIUM, Strain/Indicator: TA98, Metabolic Activation: RAT, LIVER, S-9, PHENOBARBITAL AND 5,6-BENZOFLAVONE, Method: PREINCUBATION) was “inactive; negative”, the mutagenic call [3] was “active; positive” and the mutagenic call (Test System: AMES SALMONELLA TYPHIMURIUM, Strain/Indicator: TA100, Metabolic Activation: RAT, LIVER, S-9, PHENOBARBITAL AND 5,6-BENZOFLAVONE, Method: PREINCUBATION) was “inactive; negative”. The mutagenic call (Test System: CHINESE HAMSTER OVARY, Strain/Indicator: CHO (HGPRT)/6-THIOGUANINE, Metabolic Activation: NONE, Method: STANDARD PLATE) was “active; positive”, the mutagenic call (Test System: CHINESE HAMSTER OVARY, Strain/Indicator: CHO (HGPRT)/6-THIOGUANINE, Metabolic Activation: RAT, LIVER, S-9, AROCLOR 1254, Method: STANDARD PLATE) was “active; positive” and the mutagenic call (Test System: UDS RODENT HEPATOCYTES, Strain/Indicator: THY INCORP, Metabolic Activation: NONE, Method: AUTORADIOGRAPHY) was “active; positive”.
For C1=COc2c(c3cc4ccccc4cc3c3ccccc23)C=C1, the mutagenic call [4] was “active; positive”.
For O=[N+]([O-])c1ccc2c(c1)-c1ccccc1C2, the mutagenic call (End Point: IN VITRO CHROMOSOMAL ABERRATIONS, Test System: CHINESE HAMSTER LUNG (CHL) CELLS, Metabolic Activation: NONE) was “inactive; negative”, the mutagenic call (End Point: IN VITRO CHROMOSOMAL ABERRATIONS, Test System: CHINESE HAMSTER LUNG (CHL) CELLS, Metabolic Activation: RAT, LIVER, S-9, KC-400) was “active; positive” and the mutagenic call (Test System: AMES SALMONELLA TYPHIMURIUM, Strain/Indicator: TA98 (1,8-DNP6), Metabolic Activation: NONE, Method: PREINCUBATION) was “active; positive”. The mutagenic call [1] was “active; positive”, the mutagenic call (Test System: AMES SALMONELLA TYPHIMURIUM, Strain/Indicator: TA98(NR), Metabolic Activation: RAT LIVER S-9 (10%), Method: PREINCUBATION) was “active; positive” and the mutagenic call (Test System: AMES SALMONELLA TYPHIMURIUM, Strain/Indicator: TA98 (NR), Metabolic Activation: RAT LIVER S-9, 3-METHYLCHOLANTHRENE (10%), Method: PREINCUBATION) was “active; positive”. For the same compound, the mutagenic call (Test System: AMES SALMONELLA TYPHIMURIUM, Strain/Indicator: TA98(NR), Metabolic Activation: RAT LIVER S-9, BETA-NAPHTHAFLAVONE (10%), Method: PREINCUBATION) was “active; positive”, the mutagenic call (Test System: AMES SALMONELLA TYPHIMURIUM, Strain/Indicator: TA98(NR), Metabolic Activation: RAT LIVER S-9, PCB (10%), Method: PREINCUBATION) was “active; positive” and the mutagenic call (Test System: AMES SALMONELLA TYPHIMURIUM, Strain/Indicator: TA98(NR), Metabolic Activation: RAT LIVER S-9, PHENOBARBITAL (10%), Method: PREINCUBATION) was “active; positive”. For the same compound, the mutagenic call [2] was “active; positive”.
For Oc1cc2ccc3cccc4cc5c(c1-c1ccccc1-5)c2c34, the mutagenic call [5] was “inactive; negative”.
For Nc1ccc2sncc2c1, the mutagenic call [6] was “active; positive”.
O=c1c(Cl)c(Cl)cnn1S(=O)(=O)c1ccc(Cl)cc1 was tested, and the mutagenic call [7] was “inactive; negative”, the mutagenic call [8] was “inactive; negative” and the mutagenic call [9] was “inactive; negative”. For the same compound, the mutagenic call [5] was “inactive; negative”, the mutagenic call [10] was “inactive; negative” and the mutagenic call (Test System: AMES SALMONELLA TYPHIMURIUM, Strain/Indicator: TA1535, Metabolic Activation: RAT, LIVER, S-9, AROCLOR 1254, Method: STANDARD PLATE) was “inactive; negative”. For the same compound, the mutagenic call [11] was “inactive; negative” and the mutagenic call (Test System: AMES SALMONELLA TYPHIMURIUM, Strain/Indicator: TA1537, Metabolic Activation: RAT, LIVER, S-9, AROCLOR 1254, Method: STANDARD PLATE) was “inactive; negative”.
C[C@H]1COc2c(N3CCN(C)CC3)c(F)cc3c(=O)c(C(=O)O)cn1c23 was tested, and the mutagenic call [2] was “inactive; negative”, the mutagenic call (Test System: AMES SALMONELLA TYPHIMURIUM, Strain/Indicator: TA98, Metabolic Activation: RAT, LIVER, S-9, PHENOBARBITAL AND BETA-NAPHTHOFLAVONE, Method: PREINCUBATION) was “inactive; negative” and the mutagenic call [3] was “inactive; negative”. The mutagenic call (Test System: AMES SALMONELLA TYPHIMURIUM, Strain/Indicator: TA100, Metabolic Activation: RAT, LIVER, S-9, PHENOBARBITAL AND BETA-NAPHTHOFLAVONE, Method: PREINCUBATION) was “inactive; negative”, the mutagenic call (Test System: AMES SALMONELLA TYPHIMURIUM, Strain/Indicator: TA1535, Metabolic Activation: NONE, Method: PREINCUBATION) was “inactive; negative” and the mutagenic call (Test System: AMES SALMONELLA TYPHIMURIUM, Strain/Indicator: TA1535, Metabolic Activation: RAT, LIVER, S-9, PHENOBARBITAL AND BETA-NAPHTHOFLAVONE, Method: PREINCUBATION) was “inactive; negative”. For the same compound, the mutagenic call (Test System: AMES SALMONELLA TYPHIMURIUM, Strain/Indicator: TA1537, Metabolic Activation: NONE, Method: PREINCUBATION) was “inactive; negative”, the mutagenic call (Test System: AMES SALMONELLA TYPHIMURIUM, Strain/Indicator: TA1537, Metabolic Activation: RAT, LIVER, S-9, PHENOBARBITAL AND BETA-NAPHTHOFLAVONE, Method: PREINCUBATION) was “inactive; negative” and the mutagenic call (Test System: CHINESE HAMSTER OVARY, Strain/Indicator: CHO-K1 (HGPRT)/6-THIOGUANINE, Metabolic Activation: NONE) was “inactive; negative”. For the same compound, the mutagenic call (Test System: CHINESE HAMSTER OVARY, Strain/Indicator: CHO-K1 (HGPRT)/6-THIOGUANINE, Metabolic Activation: RAT, LIVER, S-9, PHENOBARBITAL AND BETA-NAPHTHOFLAVONE) was “inactive; negative”, the mutagenic call (Test System: E.COLI, Strain/Indicator: WP2 UVRA, Metabolic Activation: NONE, Method: PREINCUBATION) was “inactive; negative” and the mutagenic call (Test System: E.COLI, Strain/Indicator: WP2 UVRA, Metabolic Activation: RAT, LIVER, S-9, PHENOBARBITAL AND BETA-NAPHTHOFLAVONE, Method: PREINCUBATION) was “inactive; negative”. For the same compound, the mutagenic call (Test System: UDS RAT HEPATOCYTES, Strain/Indicator: THY INCORP, Metabolic Activation: NONE, Method: IN VIVO-IN VITRO) was “inactive; negative”.
In the case of COc1ccc2c(c1)nc(N)n2C, the mutagenic call (Test System: AMES SALMONELLA TYPHIMURIUM, Strain/Indicator: TA98, Metabolic Activation: RAT, LIVER, S-9, AROCLOR 1254, Method: PREINCUBATION) is reported as “active; positive” and the mutagenic call [4] is reported as “active; positive”.
In the case of CC1(C)CCC2(C(=O)OC3OC(CO)C(O)C(O)C3O)CCC3(CO)C(=CCC4C5(C)CC(O)C(O)C(C)(C(=O)OC6OC(CO)C(O)C(O)C6O)C5CCC43C)C2C1 (centres undefined), the mutagenic call (End Point: In vivo micronucleus, Test System: Bone marrow polychromatic erythrocytes, Species: Mouse, Strain/Sex: C57BL/6J/Male, Route: Intraperitoneal) is reported as “inactive; negative; protective when coadministered with gamma radiation”, the mutagenic call (Test System: MOUSE LYMPHOMA, Strain/Indicator: L5178Y (TK+/TK-), Metabolic Activation: NONE, Method: SUSPENSION/PLATE) is reported as “inactive; negative. reevaluation of results: negative” and the mutagenic call (Test System: MOUSE LYMPHOMA, Strain/Indicator: L5178Y (TK+/TK-), Metabolic Activation: RAT, LIVER, S-9, AROCLOR 1254, Method: SUSPENSION/PLATE) is reported as “inactive; negative. reevaluation of results: negative”.
For [Ru], the mutagenic call (End Point: In vitro chromosomal aberrations, Test System: Human lymphocytes, Metabolic Activation: None) was “inactive; negative. actual compound tested was cis(dichloro)tetraammonium ruthenium(iii)ch”.
For CN(C(=O)CCl)c1snc2ccccc12, the mutagenic call [7] was “inactive; negative”, the mutagenic call (Test System: AMES SALMONELLA TYPHIMURIUM, Strain/Indicator: TA98, Metabolic Activation: S-9, Method: STANDARD PLATE) was “inactive; negative” and the mutagenic call [9] was “inactive; negative”. For the same compound, the mutagenic call [6] was “inactive; negative”, the mutagenic call [10] was “inactive; negative” and the mutagenic call (Test System: AMES SALMONELLA TYPHIMURIUM, Strain/Indicator: TA1535, Metabolic Activation: S-9, Method: STANDARD PLATE) was “inactive; negative”. For the same compound, the mutagenic call [11] was “inactive; negative” and the mutagenic call (Test System: AMES SALMONELLA TYPHIMURIUM, Strain/Indicator: TA1537, Metabolic Activation: S-9, Method: STANDARD PLATE) was “inactive; negative”.
For c1ccc2c(c1)cc1ccc3cccc4ncc2c1c34, the mutagenic call [8] was “active; positive” and the mutagenic call [5] was “active; positive”.
